Experimental data as given in PubChem BioAssay (NCI).
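Assay format: 96-well plates, 48-hour exposure. At the GI50, growth is halved. Definition used: TGI = concentration required for complete inhibition of growth.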 Where a SMILES comes first, the peptide text is derived from it. The star is where a group is joined. Boc = CC(C)(C)OC(=O)*; OtBu = CC(C)(C)O*

Tests used:
Assay in all cases: DTP human tumour cell line panel, 48 h
MDA-MB-231 breast = system: MDA-MB-231 breast
RXF 393 renal = system: RXF 393 renal
UACC-62 melanoma = system: UACC-62 melanoma
DU-145 prostate = system: DU-145 prostate
HL-60(TB) leukemia = system: HL-60(TB) leukemia
SNB-19 CNS = system: SNB-19 CNS
SW-620 colon = system: SW-620 colon
MDA-MB-435 = system: MDA-MB-435
HOP-92 NSCLC = system: HOP-92 NSCLC
OVCAR-3 ovarian = system: OVCAR-3 ovarian

Structure (SMILES) | TGI (MDA-MB-231 breast) [µM] | TGI (RXF 393 renal) [µM] | TGI (UACC-62 melanoma) [µM] | TGI (DU-145 prostate) [µM] | TGI (HL-60(TB) leukemia) [µM] | TGI (SNB-19 CNS) [µM] | TGI (SW-620 colon) [µM] | TGI (MDA-MB-435) [µM] | TGI (HOP-92 NSCLC) [µM] | TGI (OVCAR-3 ovarian) [µM] | GI50 (MDA-MB-231 breast) [µM] | GI50 (UACC-62 melanoma) [µM] | GI50 (DU-145 prostate) [µM] | GI50 (HL-60(TB) leukemia) [µM] | GI50 (SNB-19 CNS) [µM] | GI50 (SW-620 colon) [µM] | GI50 (OVCAR-3 ovarian) [µM] | GI50 (MDA-MB-435) [µM] | GI50 (HOP-92 NSCLC) [µM]
CC(C(=O)NCNC(=O)c1ccccc1)C(=O)NCc1ccccc1 (configuration not stated) | > 100 | > 100 | > 100 | > 100 | > 100 | > 100 | > 100 | > 100 | > 100 | – | – | – | – | – | – | – | – | – | –
O=[N+]([O-])c1ccc(-c2ccc([C@H]3CC(c4cc(F)c(Cl)cc4Cl)=NN3)o2)cc1 | – | > 100 | > 100 | > 100 | 16.2 | > 100 | > 100 | > 100 | > 100 | > 100 | – | – | – | – | – | – | – | – | –
CCOC(=O)c1cn2c(n1)sc1cc([N+](=O)[O-])ccc12 | > 100 | > 100 | > 100 | > 100 | – | > 100 | > 100 | > 100 | > 100 | > 100 | – | – | – | – | – | – | – | – | –
CC12CCC(C(=Nc3ccc([N+](=O)[O-])cc3)C1=O)C2(C)C (configuration not stated) | 76.6 | 44.9 | > 100 | 79.5 | – | > 100 | 98.4 | 64.6 | – | 55.1 | – | – | – | – | – | – | – | – | –
COCc1nc(C#N)c(N)o1 | > 10 | > 10 | > 10 | > 10 | > 10 | > 10 | > 10 | > 10 | > 10 | – | – | – | – | – | – | – | – | – | –
O=C(O)OC12CCCCCC1C(=O)C1CCCCC12 (configuration not stated) | – | > 100 | > 100 | – | > 100 | > 100 | > 100 | – | – | – | – | – | – | – | – | – | – | – | –
C/C(=C\COP(=O)(O)CP(=O)(O)O)CC/C=C(\C)CNc1ccccc1 | > 100 | > 100 | > 100 | > 100 | > 100 | > 100 | > 100 | > 100 | – | > 100 | – | – | – | – | – | – | – | – | –
O[C@@H]1CCCCN1Cc1cc2cc3c(cc2c2cc(OCc4ccccc4)ccc12)OCO3 | 3.33 | – | 3.46 | 3.02 | 3.57 | 3.59 | 2.7 | 3.06 | 2.93 | 2.95 | 1.75 | 1.89 | 1.63 | 1.5 | 1.63 | 1.17 | 1.5 | 1.63 | 1.35
O=C(c1ccccc1)N1N=C(C(F)(F)F)CC1(O)C(F)(F)F (configuration not stated) | > 100 | – | – | > 100 | > 100 | > 100 | > 100 | > 100 | – | > 100 | – | – | – | – | – | – | – | – | –
O=[N+]([O-])c1cccc(-c2ccc([C@H]3CC(c4ccc(Cl)cc4)=NN3)o2)c1 | – | 35.2 | 49.1 | 50.1 | 24.1 | 89.7 | > 100 | 54.4 | 67.6 | 43.3 | – | – | – | – | – | – | – | – | –
CC1=C(C(N)=O)C(c2ccncc2)C(C#N)C(=O)N1 (configuration not stated) | > 100 | > 100 | > 100 | > 100 | > 100 | > 100 | > 100 | > 100 | > 100 | – | – | – | – | – | – | – | – | – | –
Nc1nc(NCc2ccccc2)cc(NCc2ccccc2)n1 | 22.4 | 26.6 | 16.5 | – | > 100 | 31 | > 100 | 18.9 | 21.5 | 20.2 | – | – | – | – | – | – | – | – | –
CC(C)CCNC(=O)c1ccc(CNC(=O)/C=C/c2ccc3c(c2)-c2ccccc2C3)cc1 | > 100 | 82.6 | > 100 | > 100 | – | > 100 | > 100 | > 100 | > 100 | > 100 | – | – | – | – | – | – | – | – | –
CN1CN(c2ccccc2)C2(CCN(CCCN(C)c3ccc(F)cc3)CC2)C1=O | 28.3 | 46.2 | 36.5 | 76.1 | 26.2 | 56.5 | 36.2 | 37.4 | – | 31.7 | – | – | – | – | – | – | – | – | –
O=c1cc(O)c1=O | – | – | > 100 | > 100 | > 100 | > 100 | > 100 | > 100 | > 100 | > 100 | – | – | – | – | – | – | – | – | –
O=C(NNC(=O)c1cc2ccccc2[nH]1)c1cc2ccccc2[nH]1 | > 100 | > 100 | > 100 | > 100 | > 100 | > 100 | > 100 | > 100 | – | > 100 | – | – | – | – | – | – | – | – | –
O=C1/C(=C/c2ccc(Cl)cc2)NC(=S)N1CN1CCCCC1 | > 100 | – | 54.4 | > 100 | – | 68.7 | 45.3 | > 100 | > 100 | > 100 | – | – | – | – | – | – | – | – | –

Structure (SMILES) | TGI (MDA-MB-231 breast) [µM] | TGI (RXF 393 renal) [µM] | TGI (UACC-62 melanoma) [µM] | TGI (DU-145 prostate) [µM] | TGI (HL-60(TB) leukemia) [µM] | TGI (SNB-19 CNS) [µM] | TGI (SW-620 colon) [µM] | TGI (MDA-MB-435) [µM] | TGI (HOP-92 NSCLC) [µM] | TGI (OVCAR-3 ovarian) [µM] | GI50 (MDA-MB-231 breast) [µM] | GI50 (UACC-62 melanoma) [µM] | GI50 (DU-145 prostate) [µM] | GI50 (HL-60(TB) leukemia) [µM] | GI50 (SNB-19 CNS) [µM] | GI50 (SW-620 colon) [µM] | GI50 (OVCAR-3 ovarian) [µM] | GI50 (MDA-MB-435) [µM] | GI50 (HOP-92 NSCLC) [µM]
COc1ccc2c(c1)SC1=Nc3sc4cc(OC)ccc4[n+]3CN12 | > 100 | – | 42.4 | > 100 | 63.5 | > 100 | > 100 | > 100 | 14.6 | 21.5 | – | – | – | – | – | – | – | – | –
COC(=O)C#CC1(O)C=CC(=O)C=C1 | – | 3.76 | 2.64 | 16.7 | – | 17.9 | – | 1.28 | 2.29 | 1.6 | – | – | – | – | – | – | – | – | –
CC(=O)OCC1OC(Sc2nc(-c3ccccc3)c(C#N)c(=O)n2C2OC(COC(C)=O)C(OC(C)=O)C(OC(C)=O)C2OC(C)=O)C(OC(C)=O)C(OC(C)=O)C1OC(C)=O (configuration not stated) | > 100 | > 100 | > 100 | > 100 | – | – | > 100 | > 100 | > 100 | > 100 | – | – | – | – | – | – | – | – | –
COC(=O)[C@@H](N1C(=O)c2ccccc2C1=O)C1(C)CC(Cl)=NO1 (some centres not stated) | 60.3 | > 100 | > 100 | > 100 | – | 56.2 | > 100 | > 100 | – | > 100 | – | – | – | – | – | – | – | – | –
Nc1ccc(Oc2ccc(C3(c4ccc(Oc5ccc(N)c(O)c5)cc4)C4CC5CC(C4)CC3C5)cc2)cc1O | – | 4.51 | 7.68 | 3.68 | 5.3 | 7.6 | – | 5.22 | 8.94 | 3.35 | – | – | – | – | – | – | – | – | –
Cc1c(CNc2ccc(Cl)c(Cl)c2Cl)cnc2nc(N)nc(N)c12 | – | > 55.5 | 15.8 | – | 15.3 | > 59.9 | > 70.1 | > 48.1 | > 62.8 | > 51.3 | – | – | – | – | – | – | – | – | –
CC(C)OP(=O)(OC(C)C)C(=Nc1ccc(N=C(NNc2ccc([N+](=O)[O-])cc2)P(=O)(OC(C)C)OC(C)C)cc1)NNc1ccc([N+](=O)[O-])cc1 | – | – | 6.7 | – | > 100 | > 100 | – | – | > 100 | > 100 | – | – | – | – | – | – | – | – | –
CSc1ccc(/C=C2\N=C(c3ccccc3)N(NC(=O)c3c(Cl)c(Cl)c(Cl)c(Cl)c3-c3nc4ccccc4[nH]3)C2=O)cc1 | – | – | 59 | > 100 | 61 | > 100 | > 100 | 19.7 | 52.2 | > 100 | – | – | – | – | – | – | – | – | –
CCCCCCCC(=O)N1C2CC3CCC2(CS1(=O)=O)C3(C)C (configuration not stated) | – | 31.8 | 55.5 | > 100 | 41.9 | 76.5 | 61.6 | > 100 | 68 | > 10 | – | – | – | – | – | – | – | – | –
CCOC(=O)/C(C#N)=c1/s/c(=C(\O)N/N=C/c2ccc(OC)cc2)c(=N)n1-c1ccccc1 | – | – | > 100 | – | > 100 | > 100 | > 100 | – | > 100 | > 100 | – | – | – | – | – | – | – | – | –
CC(=O)OC(C(=O)NNC(=O)OC(C)(C)C)c1ccccc1 (configuration not stated) | > 100 | > 100 | > 100 | > 100 | – | > 100 | > 100 | > 100 | > 100 | > 100 | – | – | – | – | – | – | – | – | –
CCO/C=N\C1=C(C#N)SC2=N/C(=C\c3ccco3)C(=O)N21 | > 100 | > 100 | – | > 100 | > 100 | > 100 | > 100 | > 100 | > 100 | > 100 | – | – | – | – | – | – | – | – | –
CC(=O)Nc1ccc2c3c(cc(O)c2c1)N(C(=O)CCCCCCC(=O)Nc1ccc2c4c(cc(O)c2c1)N(C(=O)OC(C)(C)C)CC4CCl)CC3CCl (configuration not stated) | – | 0.0392 | 0.219 | 0.0587 | 0.241 | – | > 36.3 | 0.305 | 4.11 | 0.263 | – | – | – | – | – | – | – | – | –
O=C(O)c1ccc2nc(-c3ccccn3)c(-c3ccccn3)nc2c1 | > 100 | > 100 | > 100 | > 100 | > 100 | > 100 | > 100 | > 100 | > 100 | – | – | – | – | – | – | – | – | – | –
CC(=O)OCCn1c(Cc2ccc(Cl)cc2)nn(C(C)=O)c1=O | > 100 | – | > 100 | > 100 | > 100 | > 100 | > 100 | > 100 | > 100 | > 100 | – | – | – | – | – | – | – | – | –
Nc1cc2c(C3OC(CO)C(O)C3O)[nH]nc2c(=S)[nH]1 (configuration not stated) | – | > 100 | > 100 | – | > 100 | > 100 | > 100 | – | > 100 | – | – | – | – | – | – | – | – | – | –
CC(C)(C)OC(=O)CC(NC(=O)OC(C)(C)C)C(=O)NC(Cc1ccccc1)C(N)=O (configuration not stated) (Boc-Asp(OtBu)-Phe-NH2; configuration not given here) | > 100 | > 100 | – | > 100 | – | > 100 | > 100 | > 100 | > 100 | > 100 | – | – | – | – | – | – | – | – | –
